The text below walks through data of patent US20180084779A1, “PLANT DISEASE CONTROL AGENT AND USE THEREOF” (NIHON NOHYAKU CO., LTD., priority 2015, published 2018).

The experiment concerns Septoria tritici, KUK-1-21 Strain. The experiment is described as follows: Test for wheat leaf blotch, fluoroimide and/or DMI agent sprayed on wheat pots, lesion area index 17 days after inoculation. In kind it is in vivo. Particulars: for Controlling effect Combination with fluoroimide / Controlling effect DMI alone: 17 days; for Controlling effect DMI alone: fluoroimide 0 ppm. Here is the method:
Test for Wheat Leaf Blotch (Septoria tritici, KUK-1-21 Strain):
Agrochemical liquids containing a predetermined concentration of fluoroimide and/or a predetermined concentration of each DMI agent were applied to wheat in a predetermined amount with a spray gun. After air drying, a suspension of fungus spore of Septoria tritici adjusted to 1.0×10^7 spores/ml was inoculated by spraying. After that, the wheat pots were kept in a growth chamber under a light condition of at 15° C. 100% RH to encourage the development of the disease. Seventeen days after the inoculation, the lesion area index (0-10) was determined for the evaluation of the control effect.
Control effect (%)=[(Disease index of no treatment area−Disease index of treatment area)/Disease index of no treatment area]×100 [Formula 1]
The expected effect (expected value E) by using an active ingredient in combination with each of other active ingredients in the above tests was determined by the following Colby formula (see COLBY, S. R., Weeds 15: 20-22 (1967)).
E(Expected effect)=(X+Y)−(X×Y/100) [Formula 2]
X=controlling effect of fungicide A alone
Y=controlling effect of fungicide B alone

Where [1] appears, read: DMI agent 1 ppm + fluoroimide 50 ppm.
The mark [2] stands for this setting: DMI agent 1 ppm + fluoroimide 100 ppm.
[3] abbreviates: DMI agent 3 ppm + fluoroimide 50 ppm.
Setting [4] is: DMI agent 3 ppm + fluoroimide 100 ppm.
The mark [5] stands for this setting: DMI agent 10 ppm + fluoroimide 50 ppm.
Setting [6] is: DMI agent 10 ppm + fluoroimide 100 ppm.

Take `CC1(C)CCC(Cc2ccc(Cl)cc2)C1(O)Cn1cncn1` (stereo not drawn) [metconazole]: the “Controlling effect Expected value (Colby)” value reads like this: under setting [1], 30%; under setting [2], 53%; under setting [3], 46%; under setting [4], 64%; under setting [5], 92%; under setting [6], 95%. For the same compound, the “Controlling effect Combination with fluoroimide” value (from here on “Controlling effect Combination”) reads like this: under setting [1], 68%; under setting [2], 78%; under setting [3], 84%; under setting [4], 89%; under setting [5], 95%; under setting [6], 89%. Further, the “Controlling effect DMI alone” value by setting is: (DMI agent 1 ppm) 6%; (DMI agent 3 ppm) 28%; (DMI agent 10 ppm) 89%.

As for `CCCC1COC(Cn2cncn2)(c2ccc(Cl)cc2Cl)O1` (stereo not drawn) [propiconazole], the “Controlling effect Expected value (Colby)” value came out at 25% under setting [1]; 50% under setting [2]; 46% under setting [3]; 64% under setting [4]; 33% under setting [5]; 56% under setting [6]. For the same compound, the “Controlling effect Combination” value is, setting by setting: under setting [1], 62%; under setting [2], 72%; under setting [3], 89%; under setting [4], 94%; under setting [5], 89%; under setting [6], 100%. Also, the “Controlling effect DMI alone” value stood at 0% (DMI agent 1 ppm), 28% (DMI agent 3 ppm) and 11% (DMI agent 10 ppm).

Consider `CC1COC(Cn2cncn2)(c2ccc(Oc3ccc(Cl)cc3)cc2Cl)O1` (stereo not drawn) [difenoconazole], for which the “Controlling effect Expected value (Colby)” value under setting [1] came out at 25%; the “Controlling effect Expected value (Colby)” value under setting [2] is 50%; the “Controlling effect Expected value (Colby)” value under setting [3] came out at 71%; the “Controlling effect Expected value (Colby)” value under setting [4] came to 81%; the “Controlling effect Expected value (Colby)” value under setting [5] came to 71%; the “Controlling effect Expected value (Colby)” value under setting [6] came out at 81%. Moreover, the “Controlling effect Combination” value is, setting by setting: under setting [1], 52%; under setting [2], 94%; under setting [3], 89%; under setting [4], 89%; under setting [5], 89%; under setting [6], 100%. In addition, the “Controlling effect DMI alone” value reads like this: (DMI agent 1 ppm) 0%; (DMI agent 3 ppm) 61%; (DMI agent 10 ppm) 61%.

For `Fc1ccc([C@]2(Cn3cncn3)O[C@H]2c2ccccc2Cl)cc1` (racemic) [epoxiconazole], the “Controlling effect Expected value (Colby)” value came out at 25% under setting [1]; 50% under setting [2]; 63% under setting [3]; 75% under setting [4]; 71% under setting [5]; 81% under setting [6]. Moreover, the “Controlling effect Combination” value turned out to be 19% under setting [1]; 72% under setting [2]; 62% under setting [3]; 83% under setting [4]; 84% under setting [5]; 83% under setting [6]. The “Controlling effect DMI alone” value was 0% (DMI agent 1 ppm), 50% (DMI agent 3 ppm) and 61% (DMI agent 10 ppm).

In the case of `CCCN(CCOc1c(Cl)cc(Cl)cc1Cl)C(=O)n1ccnc1` [prochloraz], the “Controlling effect Expected value (Colby)” value by setting is: under setting [1], 25%; under setting [2], 50%; under setting [3], 33%; under setting [4], 56%; under setting [5], 30%; under setting [6], 53%. The “Controlling effect Combination” value is, setting by setting: under setting [1], 57%; under setting [2], 72%; under setting [3], 41%; under setting [4], 72%; under setting [5], 62%; under setting [6], 67%. Moreover, the “Controlling effect DMI alone” value is, setting by setting: (DMI agent 1 ppm) 0%; (DMI agent 3 ppm) 11%; (DMI agent 10 ppm) 6%.

With `CC(C)(C)C(O)(CCc1ccc(Cl)cc1)Cn1cncn1` (stereo not drawn) [tebuconazole], the “Controlling effect Expected value (Colby)” value came out at 30% under setting [1]; 53% under setting [2]; 58% under setting [3]; 72% under setting [4]; 71% under setting [5]; 81% under setting [6]. The “Controlling effect Combination” value came to 62% under setting [1]; 67% under setting [2]; 68% under setting [3]; 94% under setting [4]; 89% under setting [5]; 94% under setting [6]. For the same compound, the “Controlling effect DMI alone” value by setting is: (DMI agent 1 ppm) 6%; (DMI agent 3 ppm) 44%; (DMI agent 10 ppm) 61%.

Consider `OC(Cc1ccccc1Cl)(Cn1nc[nH]c1=S)C1(Cl)CC1` (stereo not drawn) [prothioconazole], for which the “Controlling effect Expected value (Colby)” value reads like this: under setting [1], 25%; under setting [2], 50%; under setting [3], 25%; under setting [4], 50%; under setting [5], 25%; under setting [6], 50%. Also, the “Controlling effect Combination” value under setting [1] is 3%; the “Controlling effect Combination” value under setting [2] was found to be 61%; the “Controlling effect Combination” value under setting [3] turned out to be 30%; the “Controlling effect Combination” value under setting [4] is given as 72%; the “Controlling effect Combination” value under setting [5] stood at 73%; the “Controlling effect Combination” value under setting [6] was found to be 67%. The “Controlling effect DMI alone” value (DMI agent 1 ppm) is 0%, the “Controlling effect DMI alone” value (DMI agent 3 ppm) turned out to be 0% and the “Controlling effect DMI alone” value (DMI agent 10 ppm) was 0%.
